Source: ChEMBL document CHEMBL1275577, “Study of the in vitro activities of rifaximin and comparator agents against 536 anaerobic intestinal bacteria from the perspective of potential utility in pathology involving bowel flora” (Antimicrob Agents Chemother, 2009)

Columns and labels:
[1] = test system: Bacteroides thetaiotaomicron; assay: Antimicrobial activity against Bacteroides thetaiotaomicron by Wadsworth agar dilution method in presence of beta-lactamase inhibitor Sulbactam; format: functional
Bacteroides caccae = assay: Antimicrobial activity against Bacteroides caccae by Wadsworth agar dilution method in presence of beta-lactamase inhibitor Sulbactam; format: functional
Bacteroides uniformis = assay: Antimicrobial activity against Bacteroides uniformis by Wadsworth agar dilution method in presence of beta-lactamase inhibitor Sulbactam; format: functional
Desulfovibrio vulgaris = assay: Antimicrobial activity against Desulfovibrio vulgaris by Wadsworth agar dilution method in presence of beta-lactamase inhibitor Sulbactam; format: functional; settings: Nitratidesulfovibrio vulgaris
Fusobacterium sp. = assay: Antimicrobial activity against Fusobacterium sp. by Wadsworth agar dilution method in presence of beta-lactamase inhibitor Sulbactam; format: functional
Porphyromonas somerae = assay: Antimicrobial activity against Porphyromonas somerae by Wadsworth agar dilution method in presence of beta-lactamase inhibitor Sulbactam; format: functional
Porphyromonas uenonis = assay: Antimicrobial activity against Porphyromonas uenonis by Wadsworth agar dilution method in presence of beta-lactamase inhibitor Sulbactam; format: functional
Clostridioides difficile = assay: Antimicrobial activity against Clostridium difficile by Wadsworth agar dilution method in presence of beta-lactamase inhibitor Sulbactam; format: functional
[2] = test system: Clostridium aminobutyricum; assay: Antimicrobial activity against Clostridium aminobutyricum by Wadsworth agar dilution method in presence of beta-lactamase inhibitor Sulbactam; format: functional
Clostridium bartlettii = assay: Antimicrobial activity against Clostridium bartlettii by Wadsworth agar dilution method in presence of beta-lactamase inhibitor Sulbactam; format: functional; settings: Intestinibacter bartlettii
Clostridium cocleatum = assay: Antimicrobial activity against Clostridium cocleatum by Wadsworth agar dilution method in presence of beta-lactamase inhibitor Sulbactam; format: functional; settings: Thomasclavelia cocleata
[3] = test system: Clostridium lactatifermentans; assay: Antimicrobial activity against Clostridium lactatifermentans by Wadsworth agar dilution method in presence of beta-lactamase inhibitor Sulbactam; format: functional; settings: Anaerotignum lactatifermentans
Clostridium septicum = assay: Antimicrobial activity against Clostridium septicum by Wadsworth agar dilution method in presence of beta-lactamase inhibitor Sulbactam; format: functional
Schaalia meyeri = assay: Antimicrobial activity against Actinomyces meyeri by Wadsworth agar dilution method in presence of beta-lactamase inhibitor Sulbactam; format: functional
[4] = test system: Bifidobacterium adolescentis; assay: Antimicrobial activity against Bifidobacterium adolescentis by Wadsworth agar dilution method in presence of beta-lactamase inhibitor Sulbactam; format: functional
[5] = Antimicrobial activity against Bifidobacterium infantis by Wadsworth agar dilution method in presence of beta-lactamase inhibitor Sulbactam; format: functional, Bifidobacterium longum subsp. infantis; settings: Bifidobacterium longum
Bifidobacterium longum = assay: Antimicrobial activity against Bifidobacterium longum by Wadsworth agar dilution method in presence of beta-lactamase inhibitor Sulbactam; format: functional
Eggerthella lenta = assay: Antimicrobial activity against Eggerthella lenta by Wadsworth agar dilution method in presence of beta-lactamase inhibitor Sulbactam; format: functional
Eubacterium rectale = assay: Antimicrobial activity against Eubacterium rectale by Wadsworth agar dilution method in presence of beta-lactamase inhibitor Sulbactam; format: functional; settings: Agathobacter rectalis
Holdemania filiformis = assay: Antimicrobial activity against Holdemania filiformis by Wadsworth agar dilution method in presence of beta-lactamase inhibitor Sulbactam; format: functional
[6] = test system: Lactobacillus catenaformis; assay: Antimicrobial activity against Lactobacillus catenaformis by Wadsworth agar dilution method in presence of beta-lactamase inhibitor Sulbactam; format: functional; settings: Eggerthia catenaformis
[7] = test system: Propionibacterium propionicum; assay: Antimicrobial activity against Propionibacterium propionicum by Wadsworth agar dilution method in presence of beta-lactamase inhibitor Sulbactam; format: functional; settings: Arachnia propionica
Anaerococcus prevotii = assay: Antimicrobial activity against Anaerococcus prevotii by Wadsworth agar dilution method in presence of beta-lactamase inhibitor Sulbactam; format: functional
Finegoldia magna = assay: Antimicrobial activity against Finegoldia magna by Wadsworth agar dilution method in presence of beta-lactamase inhibitor Sulbactam; format: functional
Parvimonas micra = assay: Antimicrobial activity against Peptostreptococcus micros by Wadsworth agar dilution method in presence of beta-lactamase inhibitor Sulbactam; format: functional
Ruminococcus torques = assay: Antimicrobial activity against Ruminococcus torques by Wadsworth agar dilution method in presence of beta-lactamase inhibitor Sulbactam; format: functional; settings: Mediterraneibacter torques
[8] = Drug level in stool of patient with traveler's diarrhea at 800 mg, po administered daily for 3 days; format: ADME, organism-based; settings: human, in vivo, 72 h

SMILES: CC1(C)S[C@@H]2[C@H](NC(=O)[C@H](N)c3ccccc3)C(=O)N2[C@H]1C(=O)O [AMPICILLIN]
- MIC50 [1]: 4 µg/mL
- MIC90 [1]: 16 µg/mL
- MIC50 (Bacteroides caccae): 16 µg/mL
- MIC90 (Bacteroides caccae): 32 µg/mL
- MIC50 (Bacteroides uniformis): 2 µg/mL
- MIC90 (Bacteroides uniformis): 16 µg/mL
- MIC50 (Desulfovibrio vulgaris): 4 µg/mL
- MIC90 (Desulfovibrio vulgaris): 32 µg/mL
- MIC50 (Fusobacterium sp.): 1 µg/mL
- MIC90 (Fusobacterium sp.): 4 µg/mL
- MIC (Porphyromonas somerae): 0.25 µg/mL
- MIC50 (Porphyromonas somerae): 0.25 µg/mL
- MIC90 (Porphyromonas somerae): 0.5 µg/mL
- MIC (Porphyromonas uenonis): 0.25 µg/mL
- MIC50 (Porphyromonas uenonis): 0.25 µg/mL
- MIC90 (Porphyromonas uenonis): 0.5 µg/mL
- MIC50 (Clostridioides difficile): 2 µg/mL
- MIC90 (Clostridioides difficile): 4 µg/mL
- MIC [2]: 0.25 µg/mL
- MIC50 [2]: 0.25 µg/mL
- MIC90 [2]: 1 µg/mL
- MIC (Clostridium bartlettii): 0.25 µg/mL
- MIC50 (Clostridium bartlettii): 0.25 µg/mL
- MIC90 (Clostridium bartlettii): 1 µg/mL
- MIC (Clostridium cocleatum): 0.25 µg/mL
- MIC50 (Clostridium cocleatum): 0.25 µg/mL
- MIC90 (Clostridium cocleatum): 1 µg/mL
- MIC [3]: 0.25 µg/mL
- MIC50 [3]: 0.25 µg/mL
- MIC90 [3]: 1 µg/mL
- MIC (Clostridium septicum): 0.25 µg/mL
- MIC50 (Clostridium septicum): 0.25 µg/mL
- MIC90 (Clostridium septicum): 1 µg/mL
- MIC (Schaalia meyeri): 0.25 µg/mL
- MIC50 (Schaalia meyeri): 0.25 µg/mL
- MIC90 (Schaalia meyeri): 2 µg/mL
- MIC [4]: 0.25 µg/mL
- MIC50 [4]: 0.25 µg/mL
- MIC90 [4]: 2 µg/mL
- MIC [5]: 0.25 µg/mL
- MIC50 [5]: 0.25 µg/mL
- MIC90 [5]: 2 µg/mL
- MIC (Bifidobacterium longum): 0.25 µg/mL
- MIC50 (Bifidobacterium longum): 0.25 µg/mL
- MIC90 (Bifidobacterium longum): 2 µg/mL
- MIC (Eggerthella lenta): 0.25 µg/mL
- MIC50 (Eggerthella lenta): 0.25 µg/mL
- MIC90 (Eggerthella lenta): 2 µg/mL
- MIC (Eubacterium rectale): 0.25 µg/mL
- MIC50 (Eubacterium rectale): 0.25 µg/mL
- MIC90 (Eubacterium rectale): 2 µg/mL
- MIC (Holdemania filiformis): 0.25 µg/mL
- MIC50 (Holdemania filiformis): 0.25 µg/mL
- MIC90 (Holdemania filiformis): 2 µg/mL
- MIC [6]: 0.25 µg/mL
- MIC50 [6]: 0.25 µg/mL
- MIC90 [6]: 2 µg/mL
- MIC [7]: 0.25 µg/mL
- MIC50 [7]: 0.25 µg/mL
- MIC90 [7]: 2 µg/mL
- MIC (Anaerococcus prevotii): 0.25 µg/mL
- MIC50 (Anaerococcus prevotii): 0.25 µg/mL
- MIC90 (Anaerococcus prevotii): 2 µg/mL
- MIC (Finegoldia magna): 0.25 µg/mL
- MIC50 (Finegoldia magna): 0.25 µg/mL
- MIC90 (Finegoldia magna): 2 µg/mL
- MIC (Parvimonas micra): 0.25 µg/mL
- MIC50 (Parvimonas micra): 0.25 µg/mL
- MIC90 (Parvimonas micra): 2 µg/mL
- MIC (Ruminococcus torques): 0.25 µg/mL
- MIC50 (Ruminococcus torques): 0.25 µg/mL
- MIC90 (Ruminococcus torques): 2 µg/mL

SMILES: CO[C@H]1/C=C/O[C@@]2(C)Oc3c(C)c(O)c4c(O)c(c5c(nc6cc(C)ccn65)c4c3C2=O)NC(=O)/C(C)=C\C=C\[C@H](C)[C@H](O)[C@@H](C)[C@@H](O)[C@@H](C)[C@H](OC(C)=O)[C@@H]1C [RIFAXIMIN]
- concentration [8]: 8000 µg/g
